Laboratory results taken from patent publication US20240109917A1 (ACTELION PHARMACEUTICALS LTD, priority 2020, published 2024).
pIC50: −log10 of the molar value. Read-outs that look alike come from different tables or passages of the source.

Molecular target: PDGFRβ (Rattus norvegicus (Rat), UniProt Q05030)
Assay: PDGFRβ Cellular Assay (PDGFRb P-Y751 HTRF in A10 cells stimulated with PDGF-BB)
Type: cell-based
Procedure, shortened: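 Rat A10 cells, plated overnight, were treated with compound for 3 hours, then stimulated with PDGF-BB (working stock 100 ng/mL in 10% FBS medium). After lysis, PDGFRβ P-Y751 was detected by HTRF.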

Sequence of PDGFRβ (Q05030 32-1097): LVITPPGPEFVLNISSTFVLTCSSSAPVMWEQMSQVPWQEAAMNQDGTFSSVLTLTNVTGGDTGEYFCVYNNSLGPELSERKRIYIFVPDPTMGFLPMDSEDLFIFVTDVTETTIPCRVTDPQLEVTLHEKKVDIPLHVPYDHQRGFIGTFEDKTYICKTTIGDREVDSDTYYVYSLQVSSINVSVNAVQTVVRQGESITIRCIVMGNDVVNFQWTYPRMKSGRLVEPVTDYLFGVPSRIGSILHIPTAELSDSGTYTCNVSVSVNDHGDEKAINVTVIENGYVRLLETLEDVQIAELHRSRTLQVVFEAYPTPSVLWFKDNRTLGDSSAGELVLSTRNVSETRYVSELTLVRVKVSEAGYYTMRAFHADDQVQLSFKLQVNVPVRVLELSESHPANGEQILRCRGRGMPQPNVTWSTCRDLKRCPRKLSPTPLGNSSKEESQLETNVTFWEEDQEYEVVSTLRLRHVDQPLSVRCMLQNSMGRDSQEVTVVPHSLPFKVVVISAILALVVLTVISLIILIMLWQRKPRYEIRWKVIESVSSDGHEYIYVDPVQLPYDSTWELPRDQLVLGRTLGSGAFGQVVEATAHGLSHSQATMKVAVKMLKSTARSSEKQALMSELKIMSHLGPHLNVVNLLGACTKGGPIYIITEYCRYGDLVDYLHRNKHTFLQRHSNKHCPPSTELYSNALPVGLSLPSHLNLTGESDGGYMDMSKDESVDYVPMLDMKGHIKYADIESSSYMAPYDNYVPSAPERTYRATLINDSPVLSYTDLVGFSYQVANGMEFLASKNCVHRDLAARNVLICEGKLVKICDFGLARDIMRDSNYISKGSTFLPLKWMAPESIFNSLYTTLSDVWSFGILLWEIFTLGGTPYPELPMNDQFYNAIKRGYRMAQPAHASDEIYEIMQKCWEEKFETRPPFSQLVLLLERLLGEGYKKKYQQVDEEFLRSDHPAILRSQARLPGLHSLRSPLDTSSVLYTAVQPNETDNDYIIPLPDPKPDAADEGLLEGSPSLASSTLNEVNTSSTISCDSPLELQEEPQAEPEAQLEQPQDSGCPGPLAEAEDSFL

Cc1ncc(NC(=O)CN2Cc3ccncc3C2)cc1NC(=O)c1cnn2cc(-c3cnn(C)c3)sc12 [Example 77, N-(5-(2-(1H-pyrrolo[3,4-c]pyridin-2 (3H)-yl)acetamido)-2-methylpyridin-3-yl)-2-(1-methyl-1H-pyrazol-4-yl)pyrazolo[5,1-b]thiazole-7-carboxamide]
pIC50 (read-out: PDGFR Cellular IC50): 7.10

COCC1CCCN1CC(=O)Nc1cnc(C)c(NC(=O)c2cnn3cc(-c4cnn(C)c4)sc23)c1 (centres unmarked) [Example 79, N-(5-(2-(2-(methoxymethyl)pyrrolidin-1-yl)acetamido)-2-methylpyridin-3-yl)-2-(1-methyl-1H-pyrazol-4-yl)pyrazolo[5,1-b]thiazole-7-carboxamide]
pIC50 (read-out: PDGFR Cellular IC50): 7.90

COCCn1cc(-c2cn3ncc(C(=O)Nc4cc(NC(=O)CCN5CC(C)(C)C5)cnc4C)c3s2)cn1 [Example 93, N-(5-(3-(3,3-dimethylazetidin-1-yl)propanamido)-2-methylpyridin-3-yl)-2-(1-(2-methoxyethyl)-1H-pyrazol-4-yl)pyrazolo[5,1-b]thiazole-7-carboxamide]
pIC50 (read-out: PDGFR Cellular IC50): 7.18

Cc1ncc(NC(=O)CN2CCC2(C)C)cc1NC(=O)c1cnn2cc(-c3cnn(C)c3)sc12 [Example 82, N-(5-(2-(2,2-dimethylazetidin-1-yl)acetamido)-2-methylpyridin-3-yl)-2-(1-methyl-1H-pyrazol-4-yl)pyrazolo[5,1-b]thiazole-7-carboxamide]
pIC50 (read-out: PDGFR Cellular IC50): 7.90

COCCn1cc(-c2cn3ncc(C(=O)Nc4cc(NC(=O)C(C)(C)CN5CCCC5(C)C)cnc4C)c3s2)cn1 [Example 488, N-(5-(3-(2,2-dimethylpyrrolidin-1-yl)-2,2-dimethyl-propanamido)-2-methylpyridin-3-yl)-2-(1-(2-methoxyethyl)-1H-pyrazol-4-yl)pyrazolo[5,1-b]thiazole-7-carboxamide]
pIC50 (read-out: PDGFR Cellular IC50): 6.43

Cc1ncc(NC(=O)CN2CCC[C@@H]2C)cc1NC(=O)c1cnn2cc(-c3cnn(CCO)c3)sc12 [Example 84, (S)-2-(1-(2-hydroxyethyl)-1H-pyrazol-4-yl)-N-(2-methyl-5-(2-(2-methylpyrrolidin-1-yl)acetamido)pyridin-3-yl)pyrazolo[5,1-b]thiazole-7-carboxamide]
pIC50 (read-out: PDGFR Cellular IC50): 7.40

Cc1ncc(NC(=O)OC[C@@H]2CCCN2C)cc1NC(=O)c1cnn2cc(-c3cn(C)nc3C)sc12 [Example 496, (S)-(1-methylpyrrolidin-2-yl)methyl (5-(2-(1,3-dimethyl-1H-pyrazol-4-yl)pyrazolo[5,1-b]thiazole-7-carboxamido)-6-methylpyridin-3-yl)carbamate]
pIC50 (read-out: PDGFR Cellular IC50): 8.25

Cc1ncc(NC(=O)CN2CCc3scnc3C2)cc1NC(=O)c1cnn2cc(-c3cnn(C)c3)sc12 [Example 61, N-(5-(2-(6,7-dihydrothiazolo[4,5-c]pyridin-5 (4H)-yl)acetamido)-2-methylpyridin-3-yl)-2-(1-methyl-1H-pyrazol-4-yl)pyrazolo[5,1-b]thiazole-7-carboxamide]
pIC50 (read-out: PDGFR Cellular IC50): 7.36

Cc1ncc(NC(=O)CN2CCOC[C@H]2C)cc1NC(=O)c1cnn2cc(-c3cnn(C)c3)sc12 [Example 50, (R)-2-(1-methyl-1H-pyrazol-4-yl)-N-(2-methyl-5-(2-(3-methylmorpholino)acetamido)pyridin-3-yl)pyrazolo[5,1-b]thiazole-7-carboxamide]
pIC50 (PDGFR Cellular IC50): 7.56

Cc1ncc(NC(=O)CN2CCc3ncsc3C2)cc1NC(=O)c1cnn2cc(-c3cnn(C)c3)sc12 [Example 58, N-(5-(2-(6,7-dihydrothiazolo[5,4-c]pyridin-5 (4H)-yl)acetamido)-2-methylpyridin-3-yl)-2-(1-methyl-1H-pyrazol-4-yl)pyrazolo[5,1-b]thiazole-7-carboxamide]
pIC50 (read-out: PDGFR Cellular IC50): 7.28

Cc1ncc(NC(=O)CN2CCC(F)(F)C2)cc1NC(=O)c1cnn2cc(-c3cnn(C)c3)sc12 [Example 73, N-(5-(2-(3,3-difluoropyrrolidin-1-yl)acetamido)-2-methylpyridin-3-yl)-2-(1-methyl-1H-pyrazol-4-yl)pyrazolo[5,1-b]thiazole-7-carboxamide]
pIC50 (read-out: PDGFR Cellular IC50): 8.49

Cc1ncc(NC(=O)CN2CCc3ncccc3C2)cc1NC(=O)c1cnn2cc(-c3cnn(C)c3)sc12 [Example 63, N-(5-(2-(7,8-dihydro-1,6-naphthyridin-6 (5H)-yl)acetamido)-2-methylpyridin-3-yl)-2-(1-methyl-1H-pyrazol-4-yl)pyrazolo[5,1-b]thiazole-7-carboxamide]
pIC50 (read-out: PDGFR Cellular IC50): 6.65

COCCn1cc(-c2cn3ncc(C(=O)Nc4cc(NC(=O)CCN5C[C@@H]6CC[C@H]5C6)cnc4C)c3s2)cn1 [Example 92, N-(5-(3-((1S,4R)-2-azabicyclo[2.2.1]heptan-2-yl)propanamido)-2-methylpyridin-3-yl)-2-(1-(2-methoxyethyl)-1H-pyrazol-4-yl)pyrazolo[5,1-b]thiazole-7-carboxamide]
pIC50 (read-out: PDGFR Cellular IC50): 6.91

Cc1ncc(NC(=O)CN2CCOCC23CC3)cc1NC(=O)c1cnn2cc(-c3cnn(C)c3)sc12 [Example 47, N-(5-(2-(7-oxa-4-azaspiro[2.5]octan-4-yl)acetamido)-2-methylpyridin-3-yl)-2-(1-methyl-1H-pyrazol-4-yl)pyrazolo[5,1-b]thiazole-7-carboxamide]
pIC50 (read-out: PDGFR Cellular IC50): 7.43

Cc1ncc(NC(=O)CN2CCO[C@H](C)C2)cc1NC(=O)c1cnn2cc(-c3cnn(C)c3)sc12 [Example 54, (R)-2-(1-methyl-1H-pyrazol-4-yl)-N-(2-methyl-5-(2-(2-methylmorpholino)acetamido)pyridin-3-yl)pyrazolo[5,1-b]thiazole-7-carboxamide]
pIC50 (read-out: PDGFR Cellular IC50): 7.94

COCCn1cc(-c2cn3ncc(C(=O)Nc4cc(NC(=O)C5(CN6CCCC6(C)C)CC5)cnc4C)c3s2)cn1 [Example 487, N-(5-(1-((2,2-dimethylpyrrolidin-1-yl)methyl)cyclopropane-carboxamido)-2-methylpyridin-3-yl)-2-(1-(2-methoxyethyl)-1H-pyrazol-4-yl)pyrazolo[5,1-b]thiazole-7-carboxamide]
pIC50 (read-out: PDGFR Cellular IC50): 7.37

Cc1ncc(NC(=O)CCN2CCCC2(C)C)cc1NC(=O)c1cnn2cc(-c3cnn(CCO)c3)sc12 [Example 88, N-(5-(3-(2,2-dimethylpyrrolidin-1-yl)propanamido)-2-methylpyridin-3-yl)-2-(1-(2-hydroxyethyl)-1H-pyrazol-4-yl)pyrazolo[5,1-b]thiazole-7-carboxamide]
pIC50 (read-out: PDGFR Cellular IC50): 6.85

Cc1ncc(NC(=O)CN2CCC3(CCO3)CC2)cc1NC(=O)c1cnn2cc(-c3cnn(C)c3)sc12 [Example 81, N-(5-(2-(1-oxa-7-azaspiro[3.5]nonan-7-yl)acetamido)-2-methylpyridin-3-yl)-2-(1-methyl-1H-pyrazol-4-yl)pyrazolo[5,1-b]thiazole-7-carboxamide]
pIC50 (read-out: PDGFR Cellular IC50): 7.10

COCCn1cc(-c2cn3ncc(C(=O)Nc4cc(NC(=O)CCN5CCC6(CCC6)C5)cnc4C)c3s2)cn1 [Example 90, N-(5-(3-(6-azaspiro[3.4]octan-6-yl)propanamido)-2-methylpyridin-3-yl)-2-(1-(2-methoxyethyl)-1H-pyrazol-4-yl)pyrazolo[5,1-b]thiazole-7-carboxamide]
pIC50 (read-out: PDGFR Cellular IC50): 7.70

COCCn1cc(-c2cn3ncc(C(=O)Nc4cc(NC(=O)C[C@H]5CCCN5C(C)C)cnc4C)c3s2)cn1 [Example 485, (R)—N-(5-(2-(1-isopropylpyrrolidin-2-yl)acetamido)-2-methylpyridin-3-yl)-2-(1-(2-methoxyethyl)-1H-pyrazol-4-yl)pyrazolo[5,1-b]thiazole-7-carboxamide]
pIC50 (read-out: PDGFR Cellular IC50): 7.46
